From US9279812B2, “Neuregulin-1-based prognosis and therapeutic stratification of colorectal cancer” (UNIVERSITEIT GENT, priority 2011, dated 2016)
One block for each molecule: values may come before it.

What was measured:
HCT-8/E11 cells [1] = assay: Single cell collagen invasion assay, HCT-8/E11; assay type: cell-based, human; details: for CM^BM-MSC-induced invasion (invasion index) / CM^BM-MSC-induced morphological response (factor shape): cetuximab 3 μM, lapatinib 1 μM, trastuzumab and pertuzumab 25 μg/ml
Experimental: (§1) Collagen invasion assays were performed as described previously (45). Briefly, 1×10^5 CRC cells were seeded on type I collagen-coated 6-well plates and treated with CM derived from 5×10^5 BM-MSC or T-MC supplemented with DMEM 10% FBS and antibiotics as indicated.
(§2) Morphology and invasion into collagen was analysed after 24 hours and quantified by means of the factor shape ([perimeter]^2/[4πarea]) and invasion index. The number of invasive and noninvasive cells was counted in 10 randomly selected microscopic fields with a 20× objective and 10× eye piece by two blinded observers using an inverted phase-contrast microscope (DMI 3000B; Leica, Wetzlar, Germany). The invasion index was calculated as the ratio of the number of cells that invaded the gel divided by the total number of cells counted in each field. Collagen matrices were fixed in 3% paraformaldehyde for 10 minutes and phalloidin-TRITC (Sigma-Aldrich) staining as described (45). Cells were imaged with a Zeiss 510 META confocal laser-scanning microscope (Carl Zeiss, Micro-imaging Inc., Heidelberg, Germany) using a 488 argon and a 543 HeNe laser. Images were acquired using a Plan Apochromat 63×/1.4 oil DIC or a Plan Apochromat 100×/1.4 oil DIC objective. All the images shown are collapsed z-stacks.

AKT = assay: Western blot of S473 p-AKT (AKT activation) in HCT-8/E11 cells; assay type: cell-based, human; details: for reduction of AKT activation (S473 p-AKT) in CM^BM-MSC-treated cells: HCT-8/E11, CM^BM-MSC 15 minutes, cetuximab 3 μM, lapatinib 1 μM, trastuzumab and pertuzumab 25 μg/ml
Experimental: (§3) Cells were harvested with Laemmli lysis buffer (0.125M Tris-HCl (pH=6.8), 10% glycerol, 2.3% sodium dodecyl sulfate [SDS]). Cell surface proteins were isolated by biotinylation (Pierce). For the detection of phosphorylated proteins, cells were grown at 70% confluence and treated for 15 minutes as indicated. Cells were harvested with NP-40 lysis buffer (1% Nonidet P-40 [NP-40][Sigma-Aldrich], 1% Triton X-100 [Bio-Rad] in phosphate-buffered saline [PBS]) and the following protease inhibitors: aprotinin (10 μg/mL), leupeptin (10 μg/mL) (ICN Biomedicals, Costa Mesa, Calif.), phenylmethylsulfonyl fluoride (1.72 mM), NaF (100 mM), NaVO3 (500 mM), and Na4P2O7 ([…]) (Sigma-Aldrich). Cell lysates (25 μg) and CM (20 μl) were suspended in Laemmli sample buffer and boiled for 5 minutes at 95° C. For immunoprecipitation, cells were harvested with NP-40 lysis buffer, and protease inhibitors. Anti-rabbit antibodies were covalently coupled to sheep anti-rabbit IgG dynabeads (Invitrogen) and then incubated for 2 hours at 4° C. with 500 μg of cell lysate or normal rabbit IgG antibody (R&D Systems) as a negative control. Immunoprecipitates were washed five times with lysis buffer, eluted with 100 μl of Laemmli lysis buffer, and boiled at 95° C. for 5 minutes. Samples were run on NuPAGE 4%-20% Bis-Tris gradient gels (Invitrogen), transferred to polyvinylidene fluoride membranes, blocked in 5% nonfat milk in PBS or 4% bovine serum albumin (BSA) in PBS for phosphorylated proteins with 0.5% Tween-20, and immunostained. Scanning densitometry was carried out with the Quantity One Program (Bio-Rad).

HER3 = assay: Western blot of Y1289 p-HER3 (HER3 activation) in HCT-8/E11 cells; assay type: cell-based, human; details: for decrease in CM^BM-MSC-induced HER3 activation (Y1289 p-HER3): HCT-8/E11, CM^BM-MSC 15 minutes, cetuximab 3 μM, lapatinib 1 μM, trastuzumab and pertuzumab 25 μg/ml
Experimental: as §3

[2] = system: HCT-8/E11+BM-MSC xenografts; assay: s.c. xenografts of HCT-8/E11 cells with BM-MSC in Swiss nu/nu mice; assay type: in vivo
Experimental: Animal studies were approved by the Local Ethical Committee for Animal Experiments, Faculty of Medicine and Health Sciences, Ghent University, Belgium. Four-week-old female Swiss nu/nu mice (10 animals per group) (Charles River Laboratories, Brussels, Belgium) were inoculated subcutaneously (s.c.) with 10^6 CRC cells (HCT-8/E11, SW480 and HCT 116) either alone or combined with 2×10^6 BM-MSC suspended in 100 μl sterile PBS. To assess the effect of soluble factors on tumorigenesis, mice were inoculated s.c. with 10^6 cancer cells in 100 μl sterile CM derived from 2.5×10^6 BM-MSC, or control medium. For these experiments, intratumoral injection of the CM (50 μl) was performed every three days. […] Tumor volume was estimated by using the equation, V=0.4×a×b^2, where V is the volume, a is the length of the major axis of the tumor, and b is the length of its minor axis. he animals were sacrificed when the tumors were approximately 1-1.5 cm^3, in compliance with regulations for the use of vertebrate animals in research. Primary tumors were extracted, weighted and fixed in 4% buffered formol for 12 hours, followed by a wash with PBS. Fixed tumors were transferred to 70% ethanol until use. Tumors were embedded in paraffin, sectioned and stained with H&E. Immunohistochemistry (IHC) using TUNEL, anti-α-SMA (Biogenex), anti-vimentin and anti-Ki67 antibodies was performed on paraffin sections, using a NexES automated slide staining system (Ventana Medical Systems, Tucson, Ariz.). Cell proliferation (Ki67 positivity) was quantified as % of positive cancer cells per high power field averaged across 12 images from 2 primary tumors per cell line.

HCT-8/E11 cells [3] = assay: Assessment of cell numbers (viable cells, serum-free); assay type: cell-based, human
Experimental: To assess the effect of rNRG-β1 or CM on cell numbers, a total of 9 wells of seeded cells were counted for each condition (triplicate samples×3 countings). First, 1×10^4 CRC cells were seeded on a 6-well plate in DMEM supplemented with 10% FCS. After 24 hours, cells were treated as indicated under serum-free conditions; medium was changed every 3 days. The total number of viable cells in each well was counted with a Countess automated cell counter (Invitrogen) every three days for 9 days; trypan blue staining was used for exclusion of dead cells.

HER3 (human) = HER3 (human) (UniProt P21860); assay: cell-based or functional assay
BAX/BCL-2 = assay: Western blot of BAX and BCL-2 expression in HCT-8/E11; assay type: cell-based, human; details: HCT-8/E11, 10 ng/ml, 6 hours
Experimental: as §3, with “Samples were run on NuPAGE 4%-20% Bis-Tris gradient gels (Invitrogen), transferred to polyvinylidene fluoride membranes, blocked in 5% nonfat milk in PBS or 4% bovine serum albumin (BSA) in PBS for phosphorylated proteins with 0.5% Tween-20, and immunostained.” left out

PARP = assay: Western blot of PARP cleavage in HCT 116; assay type: cell-based, human; details: HCT 116, 10 ng/ml, 6 hours, compared to controls
Experimental: as §3, with “Samples were run on NuPAGE 4%-20% Bis-Tris gradient gels (Invitrogen), transferred to polyvinylidene fluoride membranes, blocked in 5% nonfat milk in PBS or 4% bovine serum albumin (BSA) in PBS for phosphorylated proteins with 0.5% Tween-20, and immunostained.” left out

HER2 = assay: Western blot of Y1196 and Y1248 p-HER2 in HCT-8/E11; assay type: cell-based, human; details: 10 ng/ml, 15 minutes
Experimental: as §3, with “Samples were run on NuPAGE 4%-20% Bis-Tris gradient gels (Invitrogen), transferred to polyvinylidene fluoride membranes, blocked in 5% nonfat milk in PBS or 4% bovine serum albumin (BSA) in PBS for phosphorylated proteins with 0.5% Tween-20, and immunostained.” left out

SW480 cells = assay: Single cell collagen invasion assay, SW480; assay type: cell-based, human; details: SW480, 10 ng/ml, 24 hours, P=0.003
Experimental: as §1, §2

BAD = assay: Western blot of S136 p-BAD in HCT-8/E11; assay type: cell-based, human; details: rNRG-β1-treated HCT-8/E11
Experimental: as §3, with “Samples were run on NuPAGE 4%-20% Bis-Tris gradient gels (Invitrogen), transferred to polyvinylidene fluoride membranes, blocked in 5% nonfat milk in PBS or 4% bovine serum albumin (BSA) in PBS for phosphorylated proteins with 0.5% Tween-20, and immunostained.” left out

HCT 116 cells = assay: Single cell collagen invasion assay, HCT 116; assay type: cell-based, human; details: HCT 116, 10 ng/ml, 24 hours, P=0.007
Experimental: as §1, §2

Molecule: CS(=O)(=O)CCNCc1ccc(-c2ccc3ncnc(Nc4ccc(OCc5cccc(F)c5)c(Cl)c4)c3c2)o1 [lapatinib]
- CM^BM-MSC-induced invasion (invasion index) (HCT-8/E11 cells [1]): blocked
- CM^BM-MSC-induced morphological response (factor shape) (HCT-8/E11 cells [1]): blocked
- reduction of AKT activation (S473 p-AKT) in CM^BM-MSC-treated cells (AKT): 82%
- decrease in CM^BM-MSC-induced HER3 activation (Y1289 p-HER3) (HER3): 72%

Molecule: Cn1ncc(Cl)c1-c1cc(C(=O)N[C@H](CN)Cc2ccc(F)c(F)c2)oc1Cl [GSK2141795]
- CM^BM-MSC-induced invasion (HCT-8/E11 cells [1]; 0.1 μM, 24 hours): able to block
- CM^BM-MSC-induced invasion (HCT-8/E11 cells [1]; 1 μM, 24 hours): able to block

Molecule: pertuzumab: recombinant, humanized mAb that specifically binds HER2 and prevents HER2 homo- and HER2/HER3 heterodimerisation
- BM-MSC-enhanced tumorigenesis of HCT-8/E11 cells ([2]; 600 μg/mouse i.p.): significantly delayed
- tumor weight ([2]; 600 μg/mouse i.p. three times a week, P=0.004): decreased
- tumor volume ([2]; 600 μg/mouse i.p. three times a week, P=0.035): reduced
- Ki67 proliferation index, difference vehicle vs treatment ([2]; 95% CI −4.8 to 15.2, P=0.276): 5.2
- Ki67 proliferation index ([2]; viable areas of resected xenografts): did not significantly affect
- CM^T-MC-increased invasion (HCT-8/E11 cells [1]; HCT-8/E11, 24 hours, pertuzumab 25 μg/ml): partly inhibited
- CM^BM-MSC-induced invasion (invasion index) (HCT-8/E11 cells [1]): blocked
- CM^BM-MSC-induced morphological response (factor shape) (HCT-8/E11 cells [1]): blocked
- reduction of AKT activation (S473 p-AKT) in CM^BM-MSC-treated cells (AKT): 79%
- decrease in CM^BM-MSC-induced HER3 activation (Y1289 p-HER3) (HER3): 67%
- CM^BM-MSC-induced CRC cell survival (total number of viable cells) (HCT-8/E11 cells [3]; pertuzumab 25 μg/ml, HCT-8/E11): significantly decreased
- number of viable cells under control conditions (HCT-8/E11 cells [3]; pertuzumab 25 μg/ml, no CM): no statistically significant effect
- CM^T-MC-increased growth of HCT-8/E11 cells (trophic effect) (HCT-8/E11 cells [3]; pertuzumab 25 μg/ml, serum-free): blocked

- Y1289 p-HER3 in HCT-8/E11 cells, Western blot, 15 minutes (HER3 (human)): 0.25 ng/mL
Molecule: Recombinant human NRG-β1 EGF domain (from UniProt Q02297 177-241) (ligand)

B1: rNRG-β1: Recombinant human NRG-β1 EGF domain supplied by R&D Systems (protein)
chain: SHLVKCAEKEKTFCVNGGECFMVKDLSNPSRYLCKCPNEFTGDRCQNYVMASFYKHLGIEFMEAE
- BAX/BCL-2 ratio (BAX/BCL-2): reduced
- PARP cleavage (PARP): reduced
- morphological changes and invasion into a collagen matrix (HCT-8/E11 cells [1]; HCT-8/E11, 10 ng/ml, 24 hours, P=0.049): induced
- levels of S473 p-AKT (AKT; rNRG-β1-treated HCT-8/E11): higher levels
- HER2 activation (HER2): induced HER2 activation
- morphological changes and invasion into a collagen matrix (SW480 cells): induced
- levels of S136 p-BAD (BAD): higher levels
- morphological changes and invasion into a collagen matrix (HCT 116 cells): induced
- concentration at which phosphorylation of HER3 was significant (HER3; HCT-8/E11, 15 minutes): 0.25 ng/mL
- HCT-8/E11 cell number (HCT-8/E11 cells [3]; 0.1, 1, 10 ng/ml, serum-free, P=0.002 at 10 ng/ml): dose-dependent increase
